Measured values taken from publication PMC7846450 (Science (New York, N.Y.), 2020).

Molecular target: T1, Glk1 (Saccharomyces cerevisiae, UniProt P17709, F3S)
T1 sequence (P17709 1-500 F3S): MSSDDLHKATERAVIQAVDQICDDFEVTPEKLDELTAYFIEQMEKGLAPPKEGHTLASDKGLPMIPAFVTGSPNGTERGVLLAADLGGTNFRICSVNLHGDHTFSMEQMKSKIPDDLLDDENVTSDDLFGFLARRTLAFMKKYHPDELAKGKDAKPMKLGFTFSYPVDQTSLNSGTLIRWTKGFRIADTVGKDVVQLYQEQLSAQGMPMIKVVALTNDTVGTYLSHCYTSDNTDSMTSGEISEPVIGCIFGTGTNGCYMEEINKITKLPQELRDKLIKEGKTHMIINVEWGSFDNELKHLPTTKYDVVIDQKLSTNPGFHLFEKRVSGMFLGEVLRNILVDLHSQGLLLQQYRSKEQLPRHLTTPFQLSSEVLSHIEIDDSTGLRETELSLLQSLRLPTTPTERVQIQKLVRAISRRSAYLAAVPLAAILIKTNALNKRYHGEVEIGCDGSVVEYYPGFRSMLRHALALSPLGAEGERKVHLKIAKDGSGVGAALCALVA
Test: enzyme activity versus Glk1 concentration
Format: biochemical
Details: non-polymerizing mutant

`OC[C@H]1OC(O)[C@H](O)[C@@H](O)[C@@H]1O` (stereo partly shown) [glucose] was tested, and the “enzyme activity versus Glk1 concentration” value was “NonPol-Glk1 was enzymatically active but lacked the concentration-dependent inhibition of wild-type Glk1”.
